From PubChem BioAssay AID1259407 (Chemical Carcinogenesis Research Information System (CCRIS), 2018)
Activity calls are given as the source filed them. The rule behind the calls is not given here.

System: CCRIS mutagenicity, Ames/micronucleus/aberration tests
Experiment: CCRIS mutagenicity studies
[1] = Test System: AMES SALMONELLA TYPHIMURIUM, Strain/Indicator: TA97, Metabolic Activation: NONE, Method: PREINCUBATION
[2] = Test System: AMES SALMONELLA TYPHIMURIUM, Strain/Indicator: TA98, Metabolic Activation: NONE, Method: STANDARD PLATE
[3] = Test System: AMES SALMONELLA TYPHIMURIUM, Strain/Indicator: TA98, Metabolic Activation: RAT, LIVER, S-9, AROCLOR 1254, Method: STANDARD PLATE
[4] = Test System: AMES SALMONELLA TYPHIMURIUM, Strain/Indicator: TA100, Metabolic Activation: NONE, Method: STANDARD PLATE
[5] = Test System: AMES SALMONELLA TYPHIMURIUM, Strain/Indicator: TA100, Metabolic Activation: RAT, LIVER, S-9, AROCLOR 1254, Method: STANDARD PLATE
[6] = Test System: AMES SALMONELLA TYPHIMURIUM, Strain/Indicator: TA1538, Metabolic Activation: NONE, Method: STANDARD PLATE
[7] = Test System: AMES SALMONELLA TYPHIMURIUM, Strain/Indicator: TA1538, Metabolic Activation: RAT, LIVER, S-9, AROCLOR 1254, Method: STANDARD PLATE
[8] = Test System: AMES SALMONELLA TYPHIMURIUM, Strain/Indicator: TA98, Metabolic Activation: NONE, Method: PREINCUBATION
[9] = Test System: AMES SALMONELLA TYPHIMURIUM, Strain/Indicator: TA100, Metabolic Activation: NONE, Method: PREINCUBATION
[10] = Test System: AMES SALMONELLA TYPHIMURIUM, Strain/Indicator: TA1535, Metabolic Activation: NONE, Method: PREINCUBATION
[11] = Test System: AMES SALMONELLA TYPHIMURIUM, Strain/Indicator: TA1537, Metabolic Activation: NONE, Method: PREINCUBATION

In the case of `C=CCOC(=O)CCCCC`, the mutagenic call [1] is reported as “inactive; negative”, the mutagenic call (Test System: AMES SALMONELLA TYPHIMURIUM, Strain/Indicator: TA97, Metabolic Activation: RAT, LIVER, S-9, AROCLOR 1254, Method: PREINCUBATION) is reported as “inactive; negative” and the mutagenic call (Test System: AMES SALMONELLA TYPHIMURIUM, Strain/Indicator: TA102, Metabolic Activation: NONE, Method: PREINCUBATION) is reported as “inactive; negative”. The mutagenic call (Test System: AMES SALMONELLA TYPHIMURIUM, Strain/Indicator: TA102, Metabolic Activation: RAT, LIVER, S-9, AROCLOR 1254, Method: PREINCUBATION) was “inactive; negative”.

`C[C@@H]1O[C@@H](OC[C@H]2O[C@@H](Oc3c(-c4ccc(OCCO)c(OCCO)c4)oc4cc(OCCO)cc(O)c4c3=O)[C@H](O)[C@@H](O)[C@@H]2O)[C@H](O)[C@H](O)[C@H]1O` was tested, and the mutagenic call [2] was “inactive; negative”, the mutagenic call [3] was “inactive; negative” and the mutagenic call [4] was “inactive; negative”. For the same molecule, the mutagenic call [5] was “inactive; negative”, the mutagenic call (Test System: AMES SALMONELLA TYPHIMURIUM, Strain/Indicator: TA1535, Metabolic Activation: NONE, Method: STANDARD PLATE) was “inactive; negative” and the mutagenic call (Test System: AMES SALMONELLA TYPHIMURIUM, Strain/Indicator: TA1535, Metabolic Activation: RAT, LIVER, S-9, AROCLOR 1254, Method: STANDARD PLATE) was “inactive; negative”. The mutagenic call (Test System: AMES SALMONELLA TYPHIMURIUM, Strain/Indicator: TA1537, Metabolic Activation: NONE, Method: STANDARD PLATE) was “inactive; negative”, the mutagenic call (Test System: AMES SALMONELLA TYPHIMURIUM, Strain/Indicator: TA1537, Metabolic Activation: RAT, LIVER, S-9, AROCLOR 1254, Method: STANDARD PLATE) was “inactive; negative” and the mutagenic call [6] was “inactive; negative”. For the same molecule, the mutagenic call [7] was “inactive; negative”.

With `CCCCCCCCCCCCc1ccccc1` the mutagenic call [8] was “inactive; negative”, the mutagenic call (Test System: AMES SALMONELLA TYPHIMURIUM, Strain/Indicator: TA98, Metabolic Activation: RAT, LIVER, S-9, KC 500, Method: PREINCUBATION) was “inactive; negative” and the mutagenic call [9] was “inactive; negative”. The mutagenic call (Test System: AMES SALMONELLA TYPHIMURIUM, Strain/Indicator: TA100, Metabolic Activation: RAT, LIVER, S-9, KC 500, Method: PREINCUBATION) was “inactive; negative”, the mutagenic call [10] was “inactive; negative” and the mutagenic call (Test System: AMES SALMONELLA TYPHIMURIUM, Strain/Indicator: TA1535, Metabolic Activation: RAT, LIVER, S-9, KC 500, Method: PREINCUBATION) was “inactive; negative”. For the same molecule, the mutagenic call [11] was “inactive; negative”, the mutagenic call (Test System: AMES SALMONELLA TYPHIMURIUM, Strain/Indicator: TA1537, Metabolic Activation: RAT, LIVER, S-9, KC 500, Method: PREINCUBATION) was “inactive; negative” and the mutagenic call (Test System: AMES SALMONELLA TYPHIMURIUM, Strain/Indicator: TA1538, Metabolic Activation: NONE, Method: PREINCUBATION) was “inactive; negative”. For the same molecule, the mutagenic call (Test System: AMES SALMONELLA TYPHIMURIUM, Strain/Indicator: TA1538, Metabolic Activation: RAT, LIVER, S-9, KC 500, Method: PREINCUBATION) was “inactive; negative”, the mutagenic call (Test System: E. COLI, Strain/Indicator: WP2 UVRA, Metabolic Activation: NONE, Method: PREINCUBATION) was “inactive; negative” and the mutagenic call (Test System: E. COLI, Strain/Indicator: WP2 UVRA, Metabolic Activation: RAT, LIVER, S-9, KC 500, Method: PREINCUBATION) was “inactive; negative”.

For `O=[N+]([O-])c1ccc(CCO)cc1`, the mutagenic call (Test System: AMES SALMONELLA TYPHIMURIUM, Strain/Indicator: TA97, Metabolic Activation: HAMSTER, LIVER, S-9, AROCLOR 1254 (10%), Method: PREINCUBATION) was “inactive; negative”, the mutagenic call [1] was “inactive; negative” and the mutagenic call (Test System: AMES SALMONELLA TYPHIMURIUM, Strain/Indicator: TA97, Metabolic Activation: RAT, LIVER, S-9, AROCLOR 1254 (10%), Method: PREINCUBATION) was “inactive; negative”. For the same molecule, the mutagenic call (Test System: AMES SALMONELLA TYPHIMURIUM, Strain/Indicator: TA98, Metabolic Activation: HAMSTER, LIVER, S-9, AROCLOR 1254 (10%), Method: PREINCUBATION) was “active; positive”, the mutagenic call [8] was “active; positive” and the mutagenic call (Test System: AMES SALMONELLA TYPHIMURIUM, Strain/Indicator: TA98, Metabolic Activation: RAT, LIVER, S-9, AROCLOR 1254 (10%), Method: PREINCUBATION) was “active; positive”. The mutagenic call (Test System: AMES SALMONELLA TYPHIMURIUM, Strain/Indicator: TA100, Metabolic Activation: HAMSTER, LIVER, S-9, AROCLOR 1254 (10%), Method: PREINCUBATION) was “active; positive”, the mutagenic call [9] was “inactive; negative” and the mutagenic call (Test System: AMES SALMONELLA TYPHIMURIUM, Strain/Indicator: TA100, Metabolic Activation: RAT, LIVER, S-9, AROCLOR 1254 (10%), Method: PREINCUBATION) was “active; positive”. For the same molecule, the mutagenic call (Test System: AMES SALMONELLA TYPHIMURIUM, Strain/Indicator: TA1535, Metabolic Activation: HAMSTER, LIVER, S-9, AROCLOR 1254 (10%), Method: PREINCUBATION) was “active; positive”, the mutagenic call [10] was “inactive; negative” and the mutagenic call (Test System: AMES SALMONELLA TYPHIMURIUM, Strain/Indicator: TA1535, Metabolic Activation: RAT, LIVER, S-9, AROCLOR 1254 (10%), Method: PREINCUBATION) was “active; positive”.

`CCOC(=O)CN=[N+]=[N-]` was tested, and the mutagenic call (Test System: AMES SALMONELLA TYPHIMURIUM, Strain/Indicator: TA1530, Metabolic Activation: NONE, Method: STANDARD PLATE) was “active; positive”.

In the case of `COc1cc(N=Nc2ccc(N(CCO)CCO)cc2)ccc1N=Nc1c(S(=O)(=O)O)cc2ccc(N)cc2c1O`, the mutagenic call [2] is reported as “inactive; negative”, the mutagenic call [3] is reported as “active; positive” and the mutagenic call [4] is reported as “inactive; negative”. The mutagenic call [5] was “inactive; negative”, the mutagenic call [6] was “inactive; negative” and the mutagenic call [7] was “active; positive”.

`CC(O)COC(C)(C)C` (configuration not stated) was tested, and the mutagenic call (End Point: IN VITRO CHROMOSOMAL ABERRATIONS, Test System: CHO, Metabolic Activation: NONE) was “inactive; negative”, the mutagenic call (End Point: IN VITRO CHROMOSOMAL ABERRATIONS, Test System: CHO, Metabolic Activation: S-9) was “inactive; negative” and the mutagenic call (End Point: IN VIVO MICRONUCLEUS, Test System: PERIPHERAL BLOOD ERYTHROCYTES, Species: MOUSE, Strain/Sex: B6C3F1/FEMALE, Route: INHALATION) was “active; positive (weak)”. The mutagenic call (End Point: IN VIVO MICRONUCLEUS, Test System: PERIPHERAL BLOOD ERYTHROCYTES, Species: MOUSE, Strain/Sex: B6C3F1/MALE, Route: INHALATION) was “inactive; negative”, the mutagenic call (Test System: AMES SALMONELLA TYPHIMURIUM, Strain/Indicator: TA97, Metabolic Activation: HAMSTER, LIVER, S-9 (30%), AROCLOR 1254, Method: PREINCUBATION) was “inactive; negative” and the mutagenic call [1] was “active; positive”. The mutagenic call (Test System: AMES SALMONELLA TYPHIMURIUM, Strain/Indicator: TA97, Metabolic Activation: RAT, LIVER, S-9 (30%), AROCLOR 1254, Method: PREINCUBATION) was “inactive; negative”, the mutagenic call (Test System: AMES SALMONELLA TYPHIMURIUM, Strain/Indicator: TA98, Metabolic Activation: HAMSTER, LIVER, S-9 (30%), AROCLOR 1254, Method: PREINCUBATION) was “inactive; negative” and the mutagenic call [8] was “inactive; negative”. The mutagenic call (Test System: AMES SALMONELLA TYPHIMURIUM, Strain/Indicator: TA98, Metabolic Activation: RAT, LIVER, S-9 (30%), AROCLOR 1254, Method: PREINCUBATION) was “inactive; negative”, the mutagenic call (Test System: AMES SALMONELLA TYPHIMURIUM, Strain/Indicator: TA100, Metabolic Activation: HAMSTER, LIVER, S-9 (30%), AROCLOR 1254, Method: PREINCUBATION) was “inactive; negative” and the mutagenic call [9] was “inactive; negative”. For the same molecule, the mutagenic call (Test System: AMES SALMONELLA TYPHIMURIUM, Strain/Indicator: TA100, Metabolic Activation: RAT, LIVER, S-9 (30%), AROCLOR 1254, Method: PREINCUBATION) was “inactive; negative”, the mutagenic call (Test System: AMES SALMONELLA TYPHIMURIUM, Strain/Indicator: TA1535, Metabolic Activation: HAMSTER, LIVER, S-9 (30%), AROCLOR 1254, Method: PREINCUBATION) was “inactive; negative” and the mutagenic call [10] was “inactive; negative”. The mutagenic call (Test System: AMES SALMONELLA TYPHIMURIUM, Strain/Indicator: TA1535, Metabolic Activation: RAT, LIVER, S-9 (30%), AROCLOR 1254, Method: PREINCUBATION) was “inactive; negative” and the mutagenic call [11] was “inactive; negative”.
